According to patent publication US7390836B2, “Small molecules used to increase cell death” (priority 1999, dated 2008):

Tests used:
[1] = tested on: Bak BH3 peptide / Bcl-xL (Bcl-xL/GST, Bcl-xL-His6) interaction; assay: Fluorescence polarization assay, labeled Bak BH3 peptide binding to Bcl-xL fusion protein; details: for order of affinities of BH3Is: overall rank order from FP, NMR, pulldown and SELDI results; for order of decreasing affinity, fluorescence polarization assays: rank order
From the text: We have used a fluorescence polarization assay to screen a library of 16,000 chemical compounds (ChemBridge, San Diego, Calif.) to identify small molecules that inhibit the interaction between a peptide corresponding to the BH3 domain of a pro-apoptotic protein and a recombinant Bcl-xL/GST fusion protein. In this assay, an […] peptide corresponding to the BH3 domain of Bak was used. The Bak peptide was labeled with a fluorescent tag, such as OREGON GREEN. Upon binding of the tagged peptide to the Bcl-xL/GST fusion protein, the polarization of light emitted by the tagged peptide is altered. […] Conversely, in a sample in which a compound does inhibit the interaction between the Bak peptide and the Bcl-xL/GST fusion protein the polarization of light emitted by the peptide will not be altered.
A nineteen amino acid Bak peptide, corresponding to the BH3 domain of Bak, with the sequence […] (SEQ ID NO: 2) was labeled with the fluorophore OREGON GREEN according to the manufacturer's instructions (Molecular Probes, Eugene, Oreg.). In addition, a recombinant Bcl-xL/GST fusion protein was generated using conventional techniques known to those skilled in the fields of biochemistry and molecular biology. The interaction between the Bak peptide and the Bcl-xL/GST fusion protein was confirmed.
A screen of approximately 16,000 compounds from the ChemBridge chemical compound library was conducted to identify compounds that disrupt the interaction between the Bak peptide and the Bcl-xL/GST fusion protein. The ability of a compound to disrupt the interaction between the two polypeptides was assessed using a fluorescence polarization assay. The Bak peptide and Bcl-xL/GST fusion protein (15 nM each; dissolved in PBS) were first combined, and then the compound was added. Alternatively, the Bak peptide, Bcl-xL/GST fusion protein, and test compound (5 mg/ml; dissolved in 0.1-0.5 gl of DMSO) may be combined in any order. Normally the unbound Bak polypeptide results in polarization of approximately 40 mP units. Upon binding of the Bcl-xL/GST fusion protein, polarization increased to approximately 100-120 mP units.
In a preferred method, the fluorescence assay was carried out as follows. Bak BH3 peptide (Research Genetics) was labeled using NHS-OREGON GREEN (Molecular Probes) and purified by HPLC. For the initial screening assays, 33 nM of labeled BH3 peptide, 2 μM of GST-Bcl-xL protein, 0.1% bovine gamma globulin (BGG, Sigma) and 1 mM DTT mixed with PBS, pH 7.2 (Gibco) were added into 384 well black plates (Lab Systems) using MULTIDROP (Lab Systems). Small molecules (5 mg/ml in DMSO, ChemBridge) were transferred using plastic 384-pin arrays (Genetix). The plates were incubated for 1-2 hr at 25° C., and the fluorescence polarization assay values were determined using an Analyst plate reader (LJL Biosystems). Reactions containing 16.65 nM of labeled BH3 peptide and 4.2 μM of Bcl-xL-His6 fusion protein, which was previously utilized to characterize BH3/Bcl-xL binding (Sattler et al., Science 275:983-6, 1997) were used for the further fluorescence polarization analyses. Kd and Ki determination was performed as previously described using […] PRISM software package (GraphPad) (Dandliker et al., Methods Enzymol. 74:3-28,1981).
In a further screen, various concentrations of each of the above-identified compounds were evaluated for their potency. A serial dilution of each chemical compound was performed and the fluorescence polarization assay was repeated, as per the primary screen. As a result of the secondary screening, three compounds, chemical compound ID numbers 275805 (BH3I-1; FIG. 1), 282986 (BH3I-1′; FIG. 2), and 175362 (BH3I-2; FIG. 3), collectively termed “BH3Is,” were identified to disrupt the interaction between Bak and the BCL-xL/GST fusion protein. […] Additional homologues of the BH3I-1s (BH3I-1″ and BH3I-1′″) and BH3I-2 (BH3-2″ and BH3I-2″) were also analyzed in the study (FIG. 4). […]

[2] = tested on: tBid / Bcl-xL heterodimerization; assay: tBid pulldown with Bcl-xL-His6 beads; assay type: binding; details: for effect on tBid binding to Bcl-xL: 35S labeled in vitro translated tBid; for relative activity in tBid pulldown: comparison between compounds
Protocol: Next, it was determined whether BH3Is could disrupt the heterodimerization of Bcl-xL with pro-apoptotic proteins from the Bcl-2 family, such as truncated Bid (tBid). Truncation of Bid by caspase-8 activates Bid and dramatically increases its affinity towards anti-apoptotic Bcl-2 family members (Li et al., Cell 94:491-501, 1998). To perform this study, in vitro translation of tBid or U2AF^65 (control) was performed using TNT® Coupled Reticulocyte and Wheat Germ Lysate Systems (Promega) respectively. Bcl-xL, U2AF^35 (control) or corresponding amounts of original Ni-NTA agarose beads (blank) were pre-incubated with the BH3 inhibitors or peptide in 100 μl of PBS for 30 min at 25° C. Then 1 μl of ^35S-labeled tBID or U2AF^65 was added and incubation was continued for 2 hr at 4° C. The samples were subjected to SDS-PAGE, coomassie blue staining and autoradiography.

[3] = target: T1, Bad / Bcl-xL on mitochondria isolated from 293 cells (Homo sapiens, UniProt Q07817); assay: Mitochondrial association of Bad in isolated mitochondria; details: rank order
T1 construct: expressed in transfected cells; host or cells: 293 cells (isolated mitochondria)
T1 sequence (Q07817 whole entry): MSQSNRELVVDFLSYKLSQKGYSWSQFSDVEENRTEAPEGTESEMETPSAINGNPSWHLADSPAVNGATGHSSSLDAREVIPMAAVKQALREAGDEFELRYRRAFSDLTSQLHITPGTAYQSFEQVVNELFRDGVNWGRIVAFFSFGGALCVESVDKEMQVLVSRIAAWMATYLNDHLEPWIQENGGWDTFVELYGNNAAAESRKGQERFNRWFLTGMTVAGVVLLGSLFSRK
Protocol: FIG. 8C is an images of a the expression of Bad and Bcl-xL in 293 cells co-transfected with HA-Bad and Bcl-xL-T7. After 48 hr, cells were harvested and isolated mitochondria were treated with BH3Is for 2 hrs. Following treatment, mitochondria were pelleted by centrifugation and subjected to Western blot analysis using anti-HA and anti-T 7 antibodies.
BH3Is disrupted the mitochondrial association of Bad, but not Bcl-xL, after in vitro treatment of the mitochondria isolated from 293 cells co-transfected with Bad and Bcl-xL (FIG. 8C). The relative activities of the BH3Is in this assay (BH3I-2>BH3I-1>BH3I-1″) were consistent with the previous results. […] Again, the order of the activities in these assays was BH3I-2>BH3I-1>BH3I-1″.

CC(C)C(C(=O)O)N1C(=O)C(=Cc2ccc(Br)cc2)SC1=S (stereo in doubt) [BH3I-1]
order of affinities of BH3Is [1]: BH312′>BH3I-2>BH3I-2″>BH3I-1>BH3I-1′>BH3I-1″>BH3I-1′″
order of decreasing affinity, fluorescence polarization assays [1]: BH3I-1>BH3I-1′>BH3I-2′>BH3I-2>BH3I-2″>BH3I-1″
effect on tBid binding to Bcl-xL [2]: dose-dependent decrease in the tBid binding
relative activity in tBid pulldown [2]: lower activity than BH3I-2
relative activities, mitochondrial association of Bad [3]: BH3I-2>BH3I-1>BH3I-1″

CC(C)C(C(=O)O)N1C(=O)/C(=C/c2ccccc2)SC1=S (stereo not shown) [BH3I-1″]
order of affinities of BH3Is [1]: BH312′>BH3I-2>BH3I-2″>BH3I-1>BH3I-1′>BH3I-1″>BH3I-1′″
order of decreasing affinity, fluorescence polarization assays [1]: BH3I-1>BH3I-1′>BH3I-2′>BH3I-2>BH3I-2″>BH3I-1″
relative activity in tBid pulldown [2]: even lower
relative activities, mitochondrial association of Bad [3]: BH3I-2>BH3I-1>BH3I-1″

O=C(Nc1cc(S(=O)(=O)c2ccc(Cl)cc2)ccc1Cl)c1cc(Cl)cc(Br)c1O [BH3I-2]
order of affinities of BH3Is [1]: BH312′>BH3I-2>BH3I-2″>BH3I-1>BH3I-1′>BH3I-1″>BH3I-1′″
order of decreasing affinity, fluorescence polarization assays [1]: BH3I-1>BH3I-1′>BH3I-2′>BH3I-2>BH3I-2″>BH3I-1″
effect on tBid binding to Bcl-xL [2]: dose-dependent decrease in the tBid binding
relative activities, mitochondrial association of Bad [3]: BH3I-2>BH3I-1>BH3I-1″
